As usually defined, the EC50 is the concentration that produces a half-maximal response. As usually defined, the CC50 is the concentration that lowers cell viability or growth by half. A higher CC50 goes with lower toxicity to the cells.

For series [1], the system named is Plasmodium falciparum. In words: NOVARTIS: Inhibition of Plasmodium falciparum 3D7 (drug-susceptible) proliferation in erythrocyte-based infection assay. It is filed as functional, organism-based. To be noted: Plasmodium falciparum, 3D7.
In series [2] the test system is Plasmodium falciparum. Briefly: NOVARTIS: Inhibition of Plasmodium falciparum W2 (drug-resistant) proliferation in erythrocyte-based infection assay. In kind it is functional, organism-based. To be noted: Plasmodium falciparum, W2; read-out: EC50.
A short description of series [3]: NOVARTIS: Cytotoxicity against human hepatocellular carcinoma cell line (Huh7). In kind it is toxicity, cell-based, Huh-7. To be noted: Huh7 cells (hepatocellular carcinoma cell line).

On to `CC1CNC2C(C)C3C(CC4C5CCC6CC(N)CCC6(C)C5CCC43C)OC2(O)C1` (configuration not stated), for which the figures for the EC50 in the series on Plasmodium falciparum [1] and in the series on Plasmodium falciparum [2] were 0.863 µM and under 0.0127 µM, respectively. In series [3], this compound returned a CC50 of over 10 µM.
On the same counts, the results for `CCc1cccc2c(C#N)cn(CC(=O)Nc3ccc(OC)cc3)c12` are 0.225 µM, 0.127 µM and over 100 µM.
The matching figures for `CCOc1cc2c(cc1OCC)C(c1cc(OC)c(O)cc1Cl)NCC2` (configuration not stated): 0.362 µM, 0.0958 µM and 74.2 µM.
The matching figures for `CCOc1ccc(-n2c(=S)sc3c(=O)n(-c4ccc(C)cc4)c(SCC(=O)Nc4cc(OC)ccc4OC)nc32)cc1`: 0.285 µM, 0.123 µM and over 100 µM.
Regarding `CC=Cc1n(C)c2ccccc2[n+]1C`, the values for the EC50 with Plasmodium falciparum [1] and with Plasmodium falciparum [2] were 0.613 µM and 0.129 µM, respectively. Further, the half-maximal cytotoxic concentration (CC50) in series [3] is over 100 µM.
Consider `Oc1c(C(Nc2ccccn2)c2cccc(Cl)c2Cl)ccc2cccnc12` (configuration not stated), for which the concentration giving a half-maximal response (EC50) came out at 0.174 µM in the series on Plasmodium falciparum [1] and 0.132 µM in the series with Plasmodium falciparum [2]. The 50% cytotoxic concentration (CC50) in series [3] was over 100 µM.
As for `N=c1c2c(n(Cc3ccc([N+](=O)[O-])cc3)c3c1CCC3)CCCC2`, the half-maximal effective concentration (EC50) with Plasmodium falciparum [1] was 0.121 µM; in the series on Plasmodium falciparum [2], 0.13 µM. The compound further showed a CC50 in series [3] of over 100 µM.
On the same counts, the results for `FC(F)(F)c1cccc(NC(=S)N2CCCC2c2ccccc2C(F)(F)F)c1` (configuration not stated) are 0.213 µM, under 0.013 µM and over 10 µM.
Take `Cc1ccc(CSCc2ccc(C(=O)NC3CC3)o2)cc1`: the EC50 in the series with Plasmodium falciparum [1] is 0.418 µM; in the series with Plasmodium falciparum [2], 0.133 µM. Besides, in series [3], the CC50 was over 100 µM.
The matching figures for `CC(NCc1ccccc1)c1cc(Cl)ccc1O` (configuration not stated): 0.592 µM, 0.0972 µM and 73.3 µM.
The matching figures for `CCCCC(CC)C(=O)NCCCCNc1ccnc2cc(Cl)ccc12` (configuration not stated): 0.297 µM, under 0.0134 µM and over 10.1 µM.
The matching figures for `CC(=O)NC1=NN(C(C)=O)C(C)(c2ccc([N+](=O)[O-])cc2)S1` (configuration not stated): 0.497 µM, 0.132 µM and over 100 µM.
Consider `CC(C)(C)NC(=O)c1cn(C2CCCCC2)cc(C(=O)NC2CCN(Cc3ccccc3)C2)c1=O` (configuration not stated), for which the EC50 is 0.188 µM with Plasmodium falciparum [1] and under 0.0128 µM in the series on Plasmodium falciparum [2]. This compound also yielded a half-maximal cytotoxic concentration (CC50) in series [3] of over 10 µM.
Take `O=C(Nc1ccc(C(=O)Nc2cccc(C3=NCCN3)c2)cc1)c1ccc(C2=NCCN2)cc1`: the EC50 in the series with Plasmodium falciparum [1] is 0.193 µM; in the series with Plasmodium falciparum [2], 0.128 µM. The compound further gave a CC50 in series [3] of over 100 µM.
On the same counts, the results for `CC(C)(C)c1nn(-c2ccc(Cl)cc2)c2[nH]c(=O)c(CNCc3ccc(Cl)cc3)cc12` are 0.351 µM, 0.129 µM and over 100 µM.
Consider `CCN1CCCC(Nc2ccnc3cc4ccccc4cc23)C1` (configuration not stated), for which the figures for the EC50 in the series on Plasmodium falciparum [1] and in the series on Plasmodium falciparum [2] were 0.00824 µM and 0.00481 µM, respectively. This compound also returned a CC50 in series [3] of 3.75 µM.
The matching figures for `CCOC(=O)c1cnc2c(OC)cccc2c1Nc1ccc(C(C)=O)cc1`: 0.592 µM, 0.123 µM and over 100 µM.
On the same counts, the results for `COc1ccc(C2CC(=O)C3=C(C2)NC(=O)CC3c2ccc(C(F)(F)F)cc2)cc1OC` (configuration not stated) are 0.182 µM, 0.123 µM and over 100 µM.
The matching figures for `CCOc1cc(C2CC(=O)NC3=C2C(=O)CC(c2cc(OC)ccc2OC)C3)ccc1O` (configuration not stated): 0.431 µM, 0.123 µM and over 100 µM.
`COC(=O)c1ccc(N(C(=O)Cc2c[nH]c3ccccc23)C(C(=O)NC2CCCCC2)c2cccnc2)cc1` (configuration not stated): the EC50 with Plasmodium falciparum [1] amounted to 0.233 µM; in the series with Plasmodium falciparum [2], 0.132 µM. The compound further had a CC50 in series [3] of over 100 µM.
For `CC(C)CN1C(=O)c2ccccc2C(C(=O)Nc2ccc(F)c(Cl)c2)C1c1cccs1` (configuration not stated), the half-maximal effective concentration (EC50) was determined as 0.121 µM in the series on Plasmodium falciparum [1] and 0.12 µM in the series with Plasmodium falciparum [2]. In series [3], this compound returned a CC50 of over 95.2 µM.
The matching figures for `CC(=O)c1cccc(NC(=O)NC2CC3CCCC(C2)N3CCc2ccccc2)c1` (configuration not stated): 0.0173 µM, 0.0126 µM and over 10 µM.
On the same counts, the results for `COc1ccc(C2CC(=O)C3=C(C2)NC(C)=C(C(=O)OC2CCCC2)C3c2ccc(Cl)cc2)cc1` (configuration not stated) are 0.261 µM, 0.125 µM and over 100 µM.
The matching figures for `Cc1cc(F)ccc1NC(=O)C(C)n1c2ccccc2c2nc(=O)cc(C)n21` (configuration not stated): 0.283 µM, 0.127 µM and over 100 µM.
With `Nc1nonc1-n1nnc(C(=O)NN=Cc2ccc(F)c(Br)c2)c1-c1ccc([N+](=O)[O-])cc1`, the figures for the EC50 in the series on Plasmodium falciparum [1] and in the series with Plasmodium falciparum [2] were 0.291 µM and 0.128 µM, respectively. This compound gave a CC50 in series [3] of over 100 µM.
On the same counts, the results for `O=C(Nc1cc(Cl)cc(Cl)c1)Nc1ccccc1C(=O)NCC1CC1` are over 1.18 µM, under 0.0124 µM and over 10 µM.
On the same counts, the results for `Cc1ccc2c(c1)C(C)(c1ccc(Cl)cc1)CC(C)(C)N2C(=O)COc1ccc2ccccc2c1` (configuration not stated) are over 12.5 µM, 0.124 µM and over 100 µM.
As to `COc1cc(NC(C)CCCN(Cc2ccc(N(C)C)cc2)S(=O)(=O)c2c(C)cc(C)cc2C)c2ncccc2c1` (configuration not stated), the 50% effective concentration (EC50) with Plasmodium falciparum [1] is 0.533 µM; in the series with Plasmodium falciparum [2], under 0.0134 µM. Moreover, the CC50 in series [3] is over 10.6 µM.
On the same counts, the results for `CCOC(=O)C1=C(C)NC2=C(C(=O)CC(c3ccc(OC)c(OC)c3)C2)C1c1ccc(SC)cc1` (configuration not stated) are 0.302 µM, 0.127 µM and over 100 µM.
On the same counts, the results for `COc1ccc(C=NNc2nc3cc(Cl)ccc3[nH]2)cc1OC` are 0.239 µM, 0.111 µM and over 89.8 µM.
On the same counts, the results for `CCOC(=O)C(=CNc1ccc(I)cn1)C(=O)OCC` are 0.19 µM, under 0.0126 µM and over 10 µM.
`COC(=O)[C@@H]1C[C@@H](NC(=O)c2ccc(OC)cc2OC)CN1Cc1ccc(C)cc1C`: the EC50 amounted to 0.303 µM in the series with Plasmodium falciparum [1] and 0.126 µM in the series with Plasmodium falciparum [2]. The same compound gave a CC50 in series [3] of over 100 µM.
Turning to `c1ccc(C2=NN(c3ccccc3)N(c3ccccc3)N2)cc1`, the EC50 was 0.137 µM with Plasmodium falciparum [1] and 0.129 µM in the series on Plasmodium falciparum [2]. The compound further gave a CC50 in series [3] of over 100 µM.
The matching figures for `COC(=O)C1C(=O)C2=C(CC1C)NC(=O)CC2c1ccc(Cl)cc1Cl` (configuration not stated): 0.991 µM, 0.128 µM and over 100 µM.
On the same counts, the results for `CC1(C)C(=O)C2(CCCCC2)C(=O)OC1/C=C/c1ccccc1` (configuration not stated) are over 1.25 µM, 0.0123 µM and over 10 µM.
The matching figures for `O=C(Nc1cc(C(=O)N2CCC(Cc3ccccc3)CC2)ccc1N1CC2CC(C1)c1cccc(=O)n1C2)c1cccs1` (configuration not stated): 0.0744 µM, 0.0644 µM and 49.7 µM.
Turning to `N=c1c2c(n(Cc3ccc(Cl)cc3)c3c1CCC3)CCC2`, the EC50 in the series on Plasmodium falciparum [1] is 0.0627 µM; with Plasmodium falciparum [2] it was 0.125 µM. Further, the cytotoxic concentration (CC50) in series [3] is over 100 µM.
Regarding `CC(C)CN1C(=O)c2ccccc2C(C(=O)Nc2ccc(F)cc2F)C1c1cccs1` (configuration not stated), the EC50 is 0.219 µM in the series with Plasmodium falciparum [1] and 0.129 µM in the series with Plasmodium falciparum [2]. The compound also yielded a cytotoxic concentration (CC50) in series [3] of over 100 µM.
On to `CN(C)c1cc[n+](CC(=O)c2ccc(Cl)cc2)cc1`, for which the concentration giving a half-maximal response (EC50) was found to be 0.168 µM with Plasmodium falciparum [1] and 0.132 µM with Plasmodium falciparum [2]. In addition, the cytotoxic concentration (CC50) in series [3] is over 100 µM.

The values above are taken from ChEMBL document CHEMBL1156829 (Proc Natl Acad Sci U S A, 2008).
